{"source": "patent US8697662B2", "about": "“Methods for treating Kaposi sarcoma” (PTC Therapeutics, Inc., priority 2009, dated 2014)", "key": {"[1]": {"test_system": "hypoxia-inducible endogenous VEGF expression", "assay": "Hypoxia-inducible endogenous VEGF expression ELISA in HeLa cells, dose-response EC50 (Table 3)", "assay_type": "cell-based", "settings": "Homo sapiens, hypoxic conditions (1% O2), VEGF ELISA of conditioned media", "experimental": "The ability of the Compounds to modulate hypoxia-inducible endogenous VEGF expression may be analyzed as follows. VEGF protein levels may be monitored by an ELISA assay (R&D Systems). Briefly, HeLa cells may be cultured for 24-48 hours under hypoxic conditions (1% O2, 5% CO2, balanced with nitrogen) in the presence or absence of a Compound. The conditioned media may then be assayed by ELISA, and the concentration of VEGF calculated from the standard ELISA curve of each assay.\nA dose-response analysis may be performed using the ELISA assay and conditions described above. The conditions for the dose-response ELISA are analogous to those described above. A series of, e.g., seven different concentrations may be analyzed. In parallel, a dose-response cytotoxicity assay may be performed using Cell Titer Glo (Promega) under the same conditions as the ELISA to ensure that the inhibition of VEGF expression was not due to the cytotoxicity."}, "HT1080 xenografts [2]": {"test_system": "HT1080 xenografts", "assay": "BrdU labeling of tumor cells from HT1080 xenografts in vivo", "parameters": "species or system athymic nude mice", "settings": "HT1080 xenografts, 1, 2, or 3 days of treatment", "experimental": "(§1) Experimental Design. HT1080 cells (5×10^6 cells/mouse) were implanted subcutaneously in male athymic nude mice.\nThe mice were sacrificed 3 hours later, and the tumors collected. A single cell suspension was prepared from the tumor cells. The cells were permeabilized and an antibody to BrdU was used to stain cells that had entered S phase during the labeling period. The proportion of cells actively synthesizing DNA was determined by cell sorting."}, "HT1080 xenografts [3]": {"test_system": "HT1080 xenografts", "assay": "Time course of tumor size and plasma human VEGF in HT1080 xenografts", "assay_type": "in vivo, athymic nude mice", "settings": "by Day 1", "experimental": "as §1\nTumor size was measured by calipers immediately pre-treatment and at the time of sacrifice on Day 1, 2, or 3 (5 mice per group per day). At sacrifice, the plasma was collected for assay of pathologic human VEGF concentration using an ELISA that recognizes human VEGF121 and VEGF165 (as described in Section 9.1.1.1)."}, "[4]": {"test_system": "KS-like angioproliferative lesions", "settings": "nude mice, doses similar to AIDS patients; cited from earlier work"}, "HT1080 cells": {"test_system": "HT1080 cells", "assay": "Cell cycle analysis by propidium iodide flow cytometry in HT1080 cells (S-phase accumulation, Table 24)", "assay_type": "cell-based, human", "settings": "same tumor cells; data not shown", "experimental": "Experimental Design. […] After treatment, cells were trypsinized, and stained with propidium iodide (PI) dye to measure DNA content of individual cells by flow cytometry. Output comprised histograms showing relative DNA content in 10,000 cells.\nWhile compounds which cause greater than 20% of the cells to accumulate in S-phase at 100 nM are considered active, a larger percentage of cells may be accumulated in S-phase at lower doses depending on the Compound, as shown in FIG. 12 for example."}, "[5]": {"test_system": "primary endothelial cells", "settings": "in-vitro; cited from earlier work"}}, "note": "pEC50: −log10 of the molar value.", "data": [{"compound": "NC(=O)COc1ccc(C2c3[nH]c4ccc(Cl)cc4c3CCN2C(=O)Oc2ccc(Cl)cc2)cc1", "note": "(stereo not drawn) [Compound 1161]", "values": [{"measurement": "pEC50", "setting": "[1]", "result": "> 8.10"}]}, {"compound": "CC(CO)(CO)COc1ccc([C@H]2c3[nH]c4ccc(Cl)cc4c3CCN2C(=O)Oc2ccc(F)cc2)cc1", "note": "[Compound 1335]", "values": [{"measurement": "pEC50", "setting": "[1]; 24-48 hours", "result": "7.40 to 8.10"}]}, {"compound": "COc1cccc2c1C(=O)c1c(O)c3c(c(O)c1C2=O)C[C@@](O)(C(=O)CO)C[C@@H]3O[C@H]1C[C@H](N)[C@H](O)[C@H](C)O1", "note": "[doxorubicin, reference compound]", "values": [{"measurement": "BrdU staining of tumor cells (fraction in S phase) (in words)", "setting": "HT1080 xenografts [2]", "result": "decreased the percentage of tumor cells staining with BrdU"}, {"measurement": "pathologic plasma human VEGF levels (in words)", "setting": "HT1080 xenografts [3]", "result": "numerically lower than in control animals"}]}, {"compound": "CC(C)(C)NC(=O)[C@@H]1CN(Cc2cccnc2)CCN1C[C@@H](O)C[C@@H](Cc1ccccc1)C(=O)N[C@H]1c2ccccc2C[C@H]1O", "note": "[indinavir]", "values": [{"measurement": "macroscopic KS-like angioproliferative lesions (in words)", "setting": "[4]", "result": "reduction in the number and size"}]}, {"compound": "NC(Cn1ccc(=O)c(O)c1)C(=O)O", "note": "(stereo not drawn) [mimosine, reference compound]", "values": [{"measurement": "effect on cell cycle (and VEGF production) (in words)", "setting": "HT1080 cells", "result": "does not delay or prolong the cell cycle or reduce VEGF production"}]}, {"compound": "CC(C)c1nc(CN(C)C(=O)N[C@H](C(=O)N[C@@H](Cc2ccccc2)C[C@H](O)[C@H](Cc2ccccc2)NC(=O)OCc2cncs2)C(C)C)cs1", "note": "[ritonavir]", "values": [{"measurement": "activation and proliferation of primary endothelial cells (in words)", "setting": "[5]", "result": "inhibition of activation and proliferation"}, {"measurement": "production of TNF-α, IL-6, IL-8 and VEGF (in words)", "setting": "[5]", "result": "decreased production"}]}, {"compound": "CC(C)(C)NC(=O)[C@@H]1C[C@@H]2CCCC[C@@H]2CN1C[C@@H](O)[C@H](Cc1ccccc1)NC(=O)[C@H](CC(N)=O)NC(=O)c1ccc2ccccc2n1", "note": "[saquinavir]", "values": [{"measurement": "macroscopic KS-like angioproliferative lesions (in words)", "setting": "[4]", "result": "reduction in the number and size"}]}]}
